In US9624167B2, “N-(4-hydroxy-4-methyl-cyclohexyl)-4-phenyl-benzenesulfonamides and N-(4-hydroxy-4-methyl-cyclohexyl)-4-(2-pyridyl)benzenesulfonamides and their therapeutic use” (PIMCO 2664 LIMITED, priority 2013, dated 2017) one finds IC50, solubility and inhibition data, which are given here for 1 molecule.

One data set concerns J774 macrophages. As to the kind of experiment: Resazurin Macrophage J774 Viability Assay. It is filed as cell-based. The following applies: Mus musculus, 6 point concentration range 10 μM to 10 nM, n = 3 replicates, mean of 2 independent experiments, 72 hour incubation, read-out: IC50 (1). As for the experimental part: Potency was assessed using a viability assay based on the survival of the J774 macrophage cell line. Macrophages are closely related to osteoclasts and have been used previously as a model system for osteoclast survival (see, e.g., Luckman et al., 1998, “Heterocycle-containing bisphosphonates cause apoptosis and inhibit bone resorption by preventing protein prenylation: evidence from structure-activity relationships in J774 macrophages,” J. Bone Miner. Res., Vol. 13, pp. 1668-1678). The model is indicative both of effects on bone protection in diseases such as osteoporosis, osteoarthritis and rheumatoid arthritis, and of effects on inflammation since, like osteoclasts, J774 macrophages are dependent for survival on continued NFκB activation.
In vitro potency of test compounds was determined by incubation with J774 macrophages and subsequent determination of cell viability using resazurin.
Resazurin is a redox dye commonly used as an indicator of viability in cultured cells (see, e.g., Anoopkumar-Dukie, 2005, British Journal of Radiology, Vol. 78, pp. 945-947). It is non-toxic to cells and stable in culture medium, allowing continuous measurement of cell proliferation in vitro as either a kinetic or endpoint assay. The assay is based on the ability of viable, metabolically-active cells to reduce resazurin (which is blue and non-fluorescent) to resorufin and dihydroresorufin (which are red and fluorescent) using electrons from reducing species, such as nicotinamide adenine dinucleotide (NADPH) and flavin adenine dinucleotide (FADH). This transformation, from oxidised form to reduced form, can be measured either colorimetrically or fluorometrically. Insults that impair cell viability and proliferation also affects the capacity of cells to reduce resazurin, and the rate of dye reduction is directly proportional to the number of viable cells present.
For fluorescence measurements, 530-560 nm excitation and 590 nm emission wavelengths are typically used. For colorimetric measurements, absorbance at 570 nm (reduced form) and 600 nm (oxidised form) is typically measured. A simple calculation is performed to determine the relative quantities of the two species: a high ratio of resorufin (the reduced form) to resazurin (the oxidised form) is an indicator that cells are proliferating and viable. A low ratio indicates cells that are quiescent or non-viable.
J774 cells were plated at 10^4 cells per well in 100 μL αMEM (α Modified Eagle Medium) in 96-well plates and allowed to adhere overnight. The following day, test compounds were prepared as 100 mM solutions in DMSO. These stock solutions were diluted in DMSO and then diluted 1000× in culture medium (αMEM) before being added directly to the wells so as to give the desired final compound concentration. After a 72 hour incubation at 37° C./5% CO2, resazurin (Alamar Blue, Biosource International) was added to each well (1:10 v/v, 10 μL). The plate was then incubated at 37° C. for 3 hours and fluorescence was measured at 590 nm, with a 25 nm bandwidth.
The average results for each test compound were expressed as a percent (%) of the average control value reflecting cell viability. The average values across the concentrations tested were then plotted and the IC50 for was calculated by fitting the data to a 4-parameter IC50 equation using software from Grafit (Erithacus Software). Each experiment was repeated twice and the data are presented as the mean IC50 from both experiments.
(Alamar Blue is a resazurin reagent that responds to reducing activity.)

Data set [1] is described as follows: Aqueous (FaSSIF) solubility. It is filed as physicochemical. The settings on record: fasted state simulated intestinal fluid (FaSSIF), kinetic from dmso stock, pH 6.5, three replicates, 16 hours, read-out: Solubility (1). As to the method:
Solubility was measured by equilibration of the compound in fasted state simulated intestinal fluid (FaSSIF) and quantified by high-performance liquid chromatography (HPLC).
Aqueous solubility was measured by equilibration of compounds with fasted state simulated intestinal fluid (FaSSIF) and quantified spectrophotometrically.
FaSSIF was prepared as described below:
Preparation of blank FaSSIF: 0.21 g of sodium hydroxide (NaOH) pellets, 1.97 g of dihydrogen sodium phosphate (NaH2PO4.2H2O) and 3.09 g of sodium chloride (NaCl) were dissolved in 400 mL of deionised water. […]
Preparation of FaSSIF: 0.056 g of SIF Powder (containing sodium taurocholate and lecithin) (Phares AG) was dissolved in 25 mL of blank FaSSIF and stirred until the powder was completely dissolved. The solution was allowed to stand for 2 hours during which it became opalescent; it was used within 24 hours. The final solution composition was characterised as follows: • Sodium taurocholate: 3 mM • Lecithin: 0.75 mM • Osmolarity: 270±10 mOsmol • pH: 6.5
The optical density was measured at the end of the incubation period for test compounds and a reference used to determine solubility. In brief, two samples were prepared for each determination: a reference sample consisting of a stock solution of test compound in DMSO diluted in system solution (a phosphate free, low absorption buffer) and propanol; and a test sample (prepared in triplicate) consisting of 0.5 mL FaSSIF spiked with test compound at 0.2 mM. Each sample was incubated at room temperature for 16 hours with constant shaking at 250 rpm. At the end of the incubation period, 0.3 mL of each sample was filtered through a pION filter plate (PION, Woburn Mass.), diluted 1:1 with propanol and scanned using UV spectrophotometry at λmax ([…]) using a Spectra Max Plus—Version 2.1000 (Molecular Devices, Sunnyvale, Calif.), with μSOL Explorer solubility determination software (pION, Woburn, Mass.).
FaSSIF solubility was calculated using the following formula:
[formula] wherein: • “OD” is the optical density; • “Cr” is the concentration of the reference (33.4 μM); and • “molecular weight” is for the test compound (e.g., 381.44 for ABD735).

Another data set addresses T1, hERG (Homo sapiens, UniProt Q12809).
T1 construct: expressed in transfected cells; host or cells: Chinese Hamster Ovary cells (hERG-CHO), stably transfected
As to the kind of experiment: hERG Ion Channel Assay (Q-patch, hERG-CHO cells). It is filed as cell-based. The following applies: human, CHO cells stably transfected with hERG (hERG-CHO), pH 7.4, 30 μM, hERG tail current. As to the method: (§1) The activity of the compounds against the hERG ion channel was tested. The assay was conducted using the automated path-clamp, Q-patch method using stably transfected Chinese Hamster Ovary cells (hERG-CHO). hERG-CHO cells were cultured in F-12 Kaighn's Nutrient Mixture medium (Invitrogen)+10% FBS at 37° C. for 1-3 days. Cells were kept at 30° C. for 24 to 48 hours prior to patch clamping in order to increase the hERG current amplitude. Subsequently, the cells were harvested by trypsinisation, and kept in Serum Free Medium (SFM) in the Q-patch cell preparation state for up to 6 hours at room temperature before being washed and re-suspended in extracellular solution and applied to the patch clamp sites for data recording.
(§2) Patch-clamp voltage protocol: After whole cell configuration was achieved, the cell was held at −80 mV. A 50 millisecond pulse to −40 mV was delivered to measure the leaking current, which was subtracted from the tail current on-line. Then the cell was depolarized to +20 mV for 2 seconds, followed by a one second pulse to −40 mV to reveal hERG tail current. This paradigm was delivered once every 5 seconds to monitor the current amplitude.
(§3) Extracellular solution: 137 mM NaCl, 4 mM KCl, 1.8 mM CaCl2, 1 mM MgCl2, 10 mM D(+)-glucose, 10 mM HePES buffer (pH adjusted to 7.4 with NaOH).
(§4) After the whole cell configuration was achieved, the extracellular solution (control) was applied first and the cell was stabilized for 2 minutes in extracellular solution. The test compound was then applied from low concentrations to high concentrations cumulatively. The cell was incubated with each test concentration for 5 minutes. During each incubation, the cell was repetitively stimulated using the voltage protocol described above, and the tail current amplitude was continuously monitored.
(§5) • (1) Peak tail current >100 pA in control. • (2) Initial run-down <30% and the run-down stops before first application of the test compound. • (3) Leak currents <50% of the control peak tail currents at any time. • (4) rs<20 MΩ throughout the experiment.
(§6) The degree of inhibition (%) was obtained by measuring the tail current amplitude, induced by a one second test pulse to −40 mV after a two second pulse to +20 mV, before and after incubation with the test compound. The difference in current was normalized to control and multiplied by 100 in order to obtain the percent inhibition.
(§7) Concentration (log) response curves were fitted to a logistic equation (three parameters assuming complete block of the current at very high test compound concentrations) to generate estimates of the 50% inhibitory concentration (IC50). The concentration-response relationship of each compound was constructed from the percentage reductions of current amplitude by sequential concentrations.
For orientation: The hERG channel carries a current that helps repolarise heart muscle cells.

In a further data set the target is T2, hERG ion channel (Homo sapiens, UniProt Q12809).
T2 construct: expressed in transfected cells; host or cells: Chinese Hamster Ovary cells (hERG-CHO), stably transfected
As to the kind of experiment: hERG Ion Channel Assay (Q-patch, hERG-CHO cells). It is filed as cell-based. The settings on record: hERG tail current, hERG-CHO cells, Q-patch; read-out: IC50 (1). As for the experimental part: as §1, §2, §3, §4, §5, §6, §7

The term IC50 denotes the concentration that gives 50% inhibition. A word on the solubility: it is how much of the substance goes into solution per volume. As usually defined, the inhibition is the percentage by which the read-out fell short of the control.

In brackets after ≈: the same amount, converted by molar mass.

T2 sequence (Q12809 whole entry): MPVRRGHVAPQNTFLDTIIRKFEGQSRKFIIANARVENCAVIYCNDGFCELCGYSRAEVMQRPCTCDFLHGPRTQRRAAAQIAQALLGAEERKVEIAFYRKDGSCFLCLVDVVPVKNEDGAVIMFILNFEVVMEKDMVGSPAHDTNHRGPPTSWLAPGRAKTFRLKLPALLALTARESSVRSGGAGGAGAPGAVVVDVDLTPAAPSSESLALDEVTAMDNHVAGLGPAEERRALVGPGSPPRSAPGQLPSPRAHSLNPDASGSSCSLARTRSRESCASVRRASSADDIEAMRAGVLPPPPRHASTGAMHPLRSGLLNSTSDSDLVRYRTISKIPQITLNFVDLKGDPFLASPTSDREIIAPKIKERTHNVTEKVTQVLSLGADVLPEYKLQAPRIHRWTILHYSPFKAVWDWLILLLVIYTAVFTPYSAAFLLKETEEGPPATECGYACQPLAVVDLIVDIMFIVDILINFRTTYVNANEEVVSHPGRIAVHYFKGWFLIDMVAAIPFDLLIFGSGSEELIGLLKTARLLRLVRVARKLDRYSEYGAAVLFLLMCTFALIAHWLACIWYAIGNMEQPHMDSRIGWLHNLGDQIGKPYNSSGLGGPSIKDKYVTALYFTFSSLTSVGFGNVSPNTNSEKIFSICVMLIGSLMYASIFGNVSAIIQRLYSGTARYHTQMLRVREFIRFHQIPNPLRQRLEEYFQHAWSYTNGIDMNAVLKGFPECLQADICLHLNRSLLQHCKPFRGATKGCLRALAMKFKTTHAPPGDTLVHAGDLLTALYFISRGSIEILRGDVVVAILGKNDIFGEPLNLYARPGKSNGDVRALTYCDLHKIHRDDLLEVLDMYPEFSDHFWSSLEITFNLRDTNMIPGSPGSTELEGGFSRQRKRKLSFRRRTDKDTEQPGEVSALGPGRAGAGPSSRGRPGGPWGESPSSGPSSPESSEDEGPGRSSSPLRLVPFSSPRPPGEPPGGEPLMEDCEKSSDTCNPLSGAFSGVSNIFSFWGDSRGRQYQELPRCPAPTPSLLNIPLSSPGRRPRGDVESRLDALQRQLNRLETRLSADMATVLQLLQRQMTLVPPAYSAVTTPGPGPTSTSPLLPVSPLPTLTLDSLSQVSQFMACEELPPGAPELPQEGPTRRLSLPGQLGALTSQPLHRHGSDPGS
T1 sequence (Q12809 whole entry): as above

As for `O=S(=O)(N[C@H]1CC[C@H](O)CC1)c1ccc(-c2ccc(F)cc2F)cc1` [ABD599, reference compound], the IC50 in the data set with J774 macrophages was found to be 190 nM; at hERG ion channel, 4900 nM. Further, the solubility at 16 h in data set [1] was 30 µg/mL (≈ 81.7 µM). Also, the inhibition at 5 min, 30 µM against hERG was 85%.
